Series [1] concerns the target T1, Solute carrier family 22 member 1 (Mus musculus, UniProt O08966).
T1 sequence (O08966 whole entry): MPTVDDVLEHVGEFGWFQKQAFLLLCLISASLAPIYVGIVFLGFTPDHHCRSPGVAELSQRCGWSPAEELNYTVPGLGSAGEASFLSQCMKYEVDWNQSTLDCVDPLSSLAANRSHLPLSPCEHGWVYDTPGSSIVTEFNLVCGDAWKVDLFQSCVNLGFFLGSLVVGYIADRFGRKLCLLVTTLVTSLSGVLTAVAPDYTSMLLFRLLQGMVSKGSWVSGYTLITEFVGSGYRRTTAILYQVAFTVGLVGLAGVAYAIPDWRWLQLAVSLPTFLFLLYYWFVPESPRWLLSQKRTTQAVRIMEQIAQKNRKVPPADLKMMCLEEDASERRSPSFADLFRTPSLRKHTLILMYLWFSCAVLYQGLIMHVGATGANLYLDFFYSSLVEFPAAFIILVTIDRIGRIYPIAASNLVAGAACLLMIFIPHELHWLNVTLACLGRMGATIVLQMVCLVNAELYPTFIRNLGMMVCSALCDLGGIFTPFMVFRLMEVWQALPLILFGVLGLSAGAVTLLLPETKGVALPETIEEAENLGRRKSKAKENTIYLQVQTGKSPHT
The experiment in a line: Inhibition of mouse Oct1 transfected in HEK293 cells assessed as uptake of [14C]-TEA preincubated for 15 mins by liquid scintillation counting analysis. In kind it is cell-based.

Series [2] deals with Plasma. Briefly: Unbound plasma concentration in ddY mouse at 5 mg/kg. Details: dose 5 mg/kg. In kind it is ADME, organism-based. The settings on record: in vivo.
The target in series [3] is T2, Multidrug and toxin extrusion protein 1 (Mus musculus, UniProt Q8K0H1).
T2 sequence (Q8K0H1 whole entry): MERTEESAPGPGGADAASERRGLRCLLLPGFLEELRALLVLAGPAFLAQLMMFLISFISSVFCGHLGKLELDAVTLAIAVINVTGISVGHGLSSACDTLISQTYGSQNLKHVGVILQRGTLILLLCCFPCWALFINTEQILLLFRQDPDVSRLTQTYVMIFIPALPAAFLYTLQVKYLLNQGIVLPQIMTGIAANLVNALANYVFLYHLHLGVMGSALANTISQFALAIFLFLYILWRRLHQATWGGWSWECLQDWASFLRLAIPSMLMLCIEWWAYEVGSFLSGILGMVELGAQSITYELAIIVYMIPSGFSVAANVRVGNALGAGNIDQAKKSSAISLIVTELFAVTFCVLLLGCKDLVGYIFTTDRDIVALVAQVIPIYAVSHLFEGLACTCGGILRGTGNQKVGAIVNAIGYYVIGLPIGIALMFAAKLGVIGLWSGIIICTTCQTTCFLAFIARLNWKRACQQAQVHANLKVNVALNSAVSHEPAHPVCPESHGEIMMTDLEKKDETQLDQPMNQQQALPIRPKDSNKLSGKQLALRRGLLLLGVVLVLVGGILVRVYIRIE
The experiment in a line: Inhibition of mouse Mate1 transfected in HEK293 cells assessed as uptake of [14C]-TEA preincubated for 15 mins by liquid scintillation counting analysis. In kind it is cell-based.

Series [4] relates to Plasma. Briefly: Plasma concentration in ddY mouse at 5 mg/kg. In kind it is ADME, organism-based. Also noted: dose 5 mg/kg. The settings on record: in vivo.

Experimental findings from ChEMBL document CHEMBL3091293, “The synthesis and biodistribution of [(11)C]metformin as a PET probe to study hepatobiliary transport mediated by the multi-drug and toxin extrusion transporter 1 (MATE1) in vivo” (Bioorg Med Chem, 2013) are described below.

A word on the Ki: it is a dissociation constant, usually derived from enzyme kinetics or from competition with a known ligand. As for `CCc1nc(N)nc(N)c1-c1ccc(Cl)cc1` [PYRIMETHAMINE], the Ki in series [1] turned out to be 3600 nM; in series [3] it was 145 nM. For the same compound, in the series on Plasma [2], the “Cp(f)” value is 0.3 µM. This compound registered a concentration in the series on Plasma [4] of 3.7 µM.
